This note sets out measurements from patent US10206394B2, “Herbicidal compounds” (Syngenta Participations AG, priority 2014, dated 2019).

Common to all, as to experiment: Glasshouse assay for herbicidal activity (pre- and post-emergence), percentage phytotoxicity
Type in all cases: in vivo

Assay [1] relates to Alopecurus myosuroides (ALOMY). The following applies: Alopecurus myosuroides. The procedure, abridged: (§1)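 Potted test plants in standard soil received the compound pre-emergence (day 1) or post-emergence (about day 12). Evaluation: visual damage score from 0% (none) to 100% (total), 15 days after application post-emergence, 20 days pre-emergence.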
A further assay deals with Avena fatua (AVEFA). The following applies: Avena fatua. Put shortly:
as §1

Assay [2] concerns Echinochloa crus-galli (ECHCG). To be noted: Echinochloa crus-galli. The procedure, abridged: as §1
The subject of another assay is Lolium perenne (LOLPE). To be noted: Lolium perenne. Put shortly:
as §1

[3] abbreviates: post-emergence, 360 h, POST-emergence, rate 250 g/ha, visual score 15 DAA (100%=total damage, 0%=no damage), read-out: Post-emergence herbicidal activity (percentage phytotoxicity) ALOMY POST.
Setting [4] is: pre-emergence, 480 h, PRE-emergence, rate 250 g/ha, visual score 20 DAA (100%=total damage, 0%=no damage), read-out: Pre-emergence herbicidal activity (percentage phytotoxicity) ALOMY PRE.
The mark [5] stands for this setting: post-emergence, 360 h, POST-emergence, rate 250 g/ha, visual score 15 DAA (100%=total damage, 0%=no damage), read-out: Post-emergence herbicidal activity (percentage phytotoxicity) AVEFA POST.
Where [6] appears, read: pre-emergence, 480 h, PRE-emergence, rate 250 g/ha, visual score 20 DAA (100%=total damage, 0%=no damage), read-out: Pre-emergence herbicidal activity (percentage phytotoxicity) AVEFA PRE.
The mark [7] stands for this setting: post-emergence, 360 h, POST-emergence, rate 250 g/ha, visual score 15 DAA (100%=total damage, 0%=no damage), read-out: Post-emergence herbicidal activity (percentage phytotoxicity) ECHCG POST.
[8] abbreviates: pre-emergence, 480 h, PRE-emergence, rate 250 g/ha, visual score 20 DAA (100%=total damage, 0%=no damage), read-out: Pre-emergence herbicidal activity (percentage phytotoxicity) ECHCG PRE.
[9] abbreviates: post-emergence, 360 h, POST-emergence, rate 250 g/ha, visual score 15 DAA (100%=total damage, 0%=no damage), read-out: Post-emergence herbicidal activity (percentage phytotoxicity) LOLPE POST.
Where [10] appears, read: pre-emergence, 480 h, PRE-emergence, rate 250 g/ha, visual score 20 DAA (100%=total damage, 0%=no damage), read-out: Pre-emergence herbicidal activity (percentage phytotoxicity) LOLPE PRE.
[11] abbreviates: post-emergence, 360 h, Rate 250 g/ha, post-emergence, visual assessment 15 DAA, 100%=total damage, 0%=no damage, read-out: Post-emergence herbicidal activity (percentage phytotoxicity) ALOMY POST.
Where [12] appears, read: pre-emergence, 480 h, Rate 250 g/ha, pre-emergence, visual assessment 20 DAA, 100%=total damage, 0%=no damage, read-out: Pre-emergence herbicidal activity (percentage phytotoxicity) ALOMY PRE.
Setting [13] is: post-emergence, 360 h, Rate 250 g/ha, post-emergence, visual assessment 15 DAA, 100%=total damage, 0%=no damage, read-out: Post-emergence herbicidal activity (percentage phytotoxicity) AVEFA POST.
The mark [14] stands for this setting: pre-emergence, 480 h, Rate 250 g/ha, pre-emergence, visual assessment 20 DAA, 100%=total damage, 0%=no damage, read-out: Pre-emergence herbicidal activity (percentage phytotoxicity) AVEFA PRE.
[15] abbreviates: post-emergence, 360 h, Rate 250 g/ha, post-emergence, visual assessment 15 DAA, 100%=total damage, 0%=no damage, read-out: Post-emergence herbicidal activity (percentage phytotoxicity) ECHCG POST.
Where [16] appears, read: pre-emergence, 480 h, Rate 250 g/ha, pre-emergence, visual assessment 20 DAA, 100%=total damage, 0%=no damage, read-out: Pre-emergence herbicidal activity (percentage phytotoxicity) ECHCG PRE.
Where [17] appears, read: post-emergence, 360 h, Rate 250 g/ha, post-emergence, visual assessment 15 DAA, 100%=total damage, 0%=no damage, read-out: Post-emergence herbicidal activity (percentage phytotoxicity) LOLPE POST.
Setting [18] is: pre-emergence, 480 h, Rate 250 g/ha, pre-emergence, visual assessment 20 DAA, 100%=total damage, 0%=no damage, read-out: Pre-emergence herbicidal activity (percentage phytotoxicity) LOLPE PRE.

Where two headings read alike, the source gives them in different places.

With `CCc1cc(OCC(F)(F)F)cc(C)c1C1C(=O)CC(CC(=O)NCC2CC2)C1=O` (stereo not drawn) [Compound B219], the pest or weed control at 250 g/ha was 100% in assay [1] (setting [3]); 100% in assay [1] (setting [4]); 100% in the assay on Avena fatua (AVEFA) (setting [5]); 90% with Avena fatua (AVEFA) (setting [6]); 100% in assay [2] (setting [7]); 90% in assay [2] (setting [8]). For the same compound, the pest or weed control at 250 g/ha with Lolium perenne (LOLPE) (setting [9]) and with Lolium perenne (LOLPE) (setting [10]) was 100% throughout.

As to `COc1cccc(CNC(=O)CC2CC(=O)C(c3c(C)cc(C)cc3C)C2=O)c1` (stereo not drawn) [Compound B11], the pest or weed control at 250 g/ha in assay [1] (post-emergence, 360 h, 250 g/ha, post-emergence, 15 DAA, visual assessment (100%=total damage, 0%=no damage), read-out: Post-emergence herbicidal activity (percentage phytotoxicity) ALOMY POST) was 70%; in assay [1] (pre-emergence, 480 h, 250 g/ha, pre-emergence, 20 DAA, visual assessment (100%=total damage, 0%=no damage), read-out: Pre-emergence herbicidal activity (percentage phytotoxicity) ALOMY PRE), 70%; in the assay on Avena fatua (AVEFA) (post-emergence, 360 h, 250 g/ha, post-emergence, 15 DAA, visual assessment (100%=total damage, 0%=no damage), read-out: Post-emergence herbicidal activity (percentage phytotoxicity) AVEFA POST) it was 70%; in the assay with Avena fatua (AVEFA) (pre-emergence, 480 h, 250 g/ha, pre-emergence, 20 DAA, visual assessment (100%=total damage, 0%=no damage), read-out: Pre-emergence herbicidal activity (percentage phytotoxicity) AVEFA PRE), 70%; in assay [2] (post-emergence, 360 h, 250 g/ha, post-emergence, 15 DAA, visual assessment (100%=total damage, 0%=no damage), read-out: Post-emergence herbicidal activity (percentage phytotoxicity) ECHCG POST), 70%; in assay [2] (pre-emergence, 480 h, 250 g/ha, pre-emergence, 20 DAA, visual assessment (100%=total damage, 0%=no damage), read-out: Pre-emergence herbicidal activity (percentage phytotoxicity) ECHCG PRE) it was 90%. In addition, the pest or weed control at 250 g/ha stood at 80% in the assay with Lolium perenne (LOLPE) (post-emergence, 360 h, 250 g/ha, post-emergence, 15 DAA, visual assessment (100%=total damage, 0%=no damage), read-out: Post-emergence herbicidal activity (percentage phytotoxicity) LOLPE POST) and 90% in the assay on Lolium perenne (LOLPE) (pre-emergence, 480 h, 250 g/ha, pre-emergence, 20 DAA, visual assessment (100%=total damage, 0%=no damage), read-out: Pre-emergence herbicidal activity (percentage phytotoxicity) LOLPE PRE).

In the case of `CCc1cc(C)cc(C)c1C1C(=O)CC(CC(=O)NCc2ccc(C#N)cc2)C1=O` (stereo not drawn) [Compound B254], the pest or weed control at 250 g/ha in assay [1] (setting [3]) is 100%; in assay [1] (setting [4]), 90%; in the assay with Avena fatua (AVEFA) (setting [5]), 100%; in the assay with Avena fatua (AVEFA) (setting [6]) it was 90%; in assay [2] (setting [7]), 100%; in assay [2] (setting [8]) it was 100%. Moreover, the results for the pest or weed control at 250 g/ha with Lolium perenne (LOLPE) (setting [9]) and in the assay on Lolium perenne (LOLPE) (setting [10]) were 100% and 90%, respectively.

For `Cc1cc(-c2ncc(Cl)cc2F)cc(C)c1C1C(=O)CC(CC(=O)NCc2cnc(Cl)s2)C1=O` (stereo not drawn) [Compound A128], the pest or weed control at 250 g/ha in assay [1] (post-emergence, 360 h, Rate 250 g/ha, post-emergence, assessed visually 15 DAA, 100%=total damage, 0%=no damage, read-out: Post-emergence herbicidal activity (percentage phytotoxicity) ALOMY POST) turned out to be 100%; in assay [1] (pre-emergence, 480 h, Rate 250 g/ha, pre-emergence, assessed visually 20 DAA, 100%=total damage, 0%=no damage, read-out: Pre-emergence herbicidal activity (percentage phytotoxicity) ALOMY PRE), 80%; with Avena fatua (AVEFA) (post-emergence, 360 h, Rate 250 g/ha, post-emergence, assessed visually 15 DAA, 100%=total damage, 0%=no damage, read-out: Post-emergence herbicidal activity (percentage phytotoxicity) AVEFA POST) it was 100%; with Avena fatua (AVEFA) (pre-emergence, 480 h, Rate 250 g/ha, pre-emergence, assessed visually 20 DAA, 100%=total damage, 0%=no damage, read-out: Pre-emergence herbicidal activity (percentage phytotoxicity) AVEFA PRE), 80%; in assay [2] (post-emergence, 360 h, Rate 250 g/ha, post-emergence, assessed visually 15 DAA, 100%=total damage, 0%=no damage, read-out: Post-emergence herbicidal activity (percentage phytotoxicity) ECHCG POST) it was 100%; in assay [2] (pre-emergence, 480 h, Rate 250 g/ha, pre-emergence, assessed visually 20 DAA, 100%=total damage, 0%=no damage, read-out: Pre-emergence herbicidal activity (percentage phytotoxicity) ECHCG PRE) it was 100%. The pest or weed control at 250 g/ha is 100% in the assay with Lolium perenne (LOLPE) (post-emergence, 360 h, Rate 250 g/ha, post-emergence, assessed visually 15 DAA, 100%=total damage, 0%=no damage, read-out: Post-emergence herbicidal activity (percentage phytotoxicity) LOLPE POST) and 90% with Lolium perenne (LOLPE) (pre-emergence, 480 h, Rate 250 g/ha, pre-emergence, assessed visually 20 DAA, 100%=total damage, 0%=no damage, read-out: Pre-emergence herbicidal activity (percentage phytotoxicity) LOLPE PRE).

With `Cc1cc(-c2ncc(Cl)cn2)cc(C)c1C1C(=O)CC(CC(=O)NCc2cccs2)C1=O` (stereo not drawn) [Compound B353], the pest or weed control at 250 g/ha is 90% in assay [1] (setting [11]); 80% in assay [1] (setting [12]); 100% in the assay on Avena fatua (AVEFA) (setting [13]); 90% in the assay with Avena fatua (AVEFA) (setting [14]); 100% in assay [2] (setting [15]); 100% in assay [2] (setting [16]). The pest or weed control at 250 g/ha amounted to 100% in the assay with Lolium perenne (LOLPE) (setting [17]) and 90% with Lolium perenne (LOLPE) (setting [18]).

`C=C(C)CNC(=O)CC1CC(=O)C(c2c(C)cc(-c3ncc(F)cn3)cc2C)C1=O` (stereo not drawn) [Compound B278]: the pest or weed control at 250 g/ha (in assay [1] (setting [3]); in assay [1] (setting [4]); with Avena fatua (AVEFA) (setting [5]); in the assay on Avena fatua (AVEFA) (setting [6]); in assay [2] (setting [7]); in assay [2] (setting [8])) was 100% throughout. Moreover, the values for the pest or weed control at 250 g/ha with Lolium perenne (LOLPE) (setting [9]) and with Lolium perenne (LOLPE) (setting [10]) were 90% and 100%, respectively.

For `Cc1cc(-n2cc(Cl)cn2)cc(C)c1C1C(=O)CC(CC(=O)NCc2cccc(Br)c2)C1=O` (stereo not drawn) [Compound B312], the pest or weed control at 250 g/ha in assay [1] (setting [3]) was 90%; in assay [1] (setting [4]), 10%; in the assay on Avena fatua (AVEFA) (setting [5]), 100%; in the assay with Avena fatua (AVEFA) (setting [6]) it was 10%; in assay [2] (setting [7]) it was 100%; in assay [2] (setting [8]) it was 70%. Moreover, the pest or weed control at 250 g/ha came to 80% with Lolium perenne (LOLPE) (setting [9]) and 70% in the assay on Lolium perenne (LOLPE) (setting [10]).

For the compound `Cc1cc(-c2ncc(Cl)cn2)cc(C)c1C1C(=O)CC(CC(=O)N(C)C(C)C)C1=O` (stereo not drawn) [Compound B351], the pest or weed control at 250 g/ha in assay [1] (setting [11]) worked out at 100%; in assay [1] (setting [12]), 100%; in the assay with Avena fatua (AVEFA) (setting [13]) it was 100%; in the assay on Avena fatua (AVEFA) (setting [14]), 90%; in assay [2] (setting [15]), 100%; in assay [2] (setting [16]) it was 100%. Moreover, the pest or weed control at 250 g/ha in the assay with Lolium perenne (LOLPE) (setting [17]) and in the assay on Lolium perenne (LOLPE) (setting [18]) was 100% each time.

For `CC#Cc1cc(C)c(C2C(=O)CC(CC(=O)NCc3cccc(Cl)c3)C2=O)c(C)c1` (stereo not drawn) [Compound B182], the pest or weed control at 250 g/ha was 100% in assay [1] (setting [3]); 100% in assay [1] (setting [4]); 100% in the assay on Avena fatua (AVEFA) (setting [5]); 90% in the assay with Avena fatua (AVEFA) (setting [6]); 100% in assay [2] (setting [7]); 100% in assay [2] (setting [8]). Further, the pest or weed control at 250 g/ha with Lolium perenne (LOLPE) (setting [9]) and in the assay on Lolium perenne (LOLPE) (setting [10]) was 100% each time.
